Results on 13 molecules are retold here after article PMC8399014, “Design of Multifaceted Antioxidants: Shifting towards Anti-Inflammatory and Antihyperlipidemic Activity” (Molecules, 2021).

Like-named read-outs stand apart in the source and are kept apart here. Marks after values point to notes of the source that are not given here.

The nature of data set [1]: Radical scavenging of DPPH. The settings on record: DPPH 200 μM, after incubation for 30 min. As for the experimental part:
The antioxidant activity of compounds 1–17 was evaluated via their ability to scavenge the free radical DPPH.
Compounds dissolved in absolute methanol at concentrations of 25–400 μM were added to an equal volume of a methanolic solution of DPPH (final concentration 200 μM) at room temperature (22 ± 2 °C). Absorbance (517 nm) was recorded at different time intervals for 1 h and results were expressed as IC50 (μM) for DPPH after incubation for 30 min [3].
For orientation: The DPPH test is a chemical assay of radical scavenging.

The target in data set [2] is T1, soybean lipoxygenase (LOX-3) (Glycine max, UniProt P09186).
T1 sequence (P09186 1-857): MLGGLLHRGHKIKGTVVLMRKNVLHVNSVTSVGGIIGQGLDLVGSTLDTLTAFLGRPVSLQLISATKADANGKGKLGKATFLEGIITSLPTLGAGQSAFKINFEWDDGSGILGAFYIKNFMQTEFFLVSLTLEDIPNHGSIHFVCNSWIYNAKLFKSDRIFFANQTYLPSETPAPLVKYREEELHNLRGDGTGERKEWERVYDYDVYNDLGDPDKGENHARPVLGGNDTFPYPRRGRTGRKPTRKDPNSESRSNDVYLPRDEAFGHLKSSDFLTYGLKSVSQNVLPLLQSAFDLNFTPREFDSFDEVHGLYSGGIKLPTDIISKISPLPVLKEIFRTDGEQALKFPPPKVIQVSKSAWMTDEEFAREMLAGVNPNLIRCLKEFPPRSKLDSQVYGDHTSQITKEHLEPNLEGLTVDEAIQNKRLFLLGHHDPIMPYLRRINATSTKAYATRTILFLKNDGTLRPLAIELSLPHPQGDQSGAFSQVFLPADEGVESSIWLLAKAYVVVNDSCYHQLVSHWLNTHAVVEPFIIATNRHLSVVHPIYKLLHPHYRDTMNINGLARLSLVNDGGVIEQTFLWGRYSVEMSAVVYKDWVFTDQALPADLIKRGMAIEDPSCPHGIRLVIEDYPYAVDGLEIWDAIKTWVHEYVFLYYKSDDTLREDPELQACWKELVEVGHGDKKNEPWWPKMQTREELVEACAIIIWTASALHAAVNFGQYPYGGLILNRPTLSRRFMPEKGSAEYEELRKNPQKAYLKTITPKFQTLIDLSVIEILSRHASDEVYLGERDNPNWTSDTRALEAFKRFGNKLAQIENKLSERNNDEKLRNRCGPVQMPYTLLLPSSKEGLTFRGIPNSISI
The data set can be described thus: Soybean lipoxygenase (LOX-3) inhibition. It counts as biochemical. To be noted: for LOX-3 inhibitory activity (in words): parent antioxidants.
Experimental: The anti-inflammatory effect of the synthesized compounds was initially evaluated in vitro, via their ability to inhibit soybean lipoxygenase (LOX-3).
Lipoxygenase activity was determined using soybean lipoxygenase (250 U/mL) and sodium linoleate (100 μM) as substrate, in Tris–HCl buffer pH 9.0. The test compounds dissolved in methanol were added and the reaction was monitored for 5 min at 28 °C, recording absorbance at 234 nm.

Data set [3] has as its system carrageenan-induced mouse paw edema. The data set can be described thus: Carrageenan-induced mouse paw edema. It counts as in vivo. The settings on record: for inhibition in vivo at 300 µmol/kg: Mus musculus, ip, 0.30 mmol/kg i.p., 3.5 h after carrageenan, mean of 6 animals, read-out: % Edema Reduction. On the procedure: In vivo anti-inflammatory activity of the synthesized compounds was evaluated as mouse paw edema reduction. Paw edema was induced by subcutaneous injection of a 2% carrageenan suspension in the right paw of mice, the left serving as the control. The activity of the tested compounds (at 0.30 mmol/kg of body weight, i.p.), expressed as % reduction in paw edema 3.5 h after carrageenan injection, is shown in Table 2. […] Moreover, compounds 9 and 10 (antioxidant derivatives of mefenamic acid) caused a 1.5–2-fold improvement in edema reduction compared to that of the parent mefenamic acid (i).
For the in vivo anti-inflammatory activity, Wistar male rats or C57BL/6 mice were injected with 0.025 mL carrageenan (2% w/v solution in saline) i.d. into the right hind paw, with the left paw serving as the control. The test compounds (300 μmol/kg) were given, i.p., after the carrageenan injection, and 3.5 h later, the produced edema was estimated as the paw weight increase. Results are expressed as percentage of the reduction in paw edema and are the means for six animals (per compound).
In general terms: In the carrageenan paw model, swelling and tenderness develop within hours.

For data set [4], the system named is rat/mouse microsomal lipid peroxidation. Description: Inhibition of microsomal lipid peroxidation. It counts as biochemical, C57BL/6 mice. The settings on record: after 45 min of incubation; read-out: IC50 against microsomal lipid peroxidation. As for the experimental part: The antioxidant effect of the new compounds, as well as their parent compounds was also evaluated by the protection offered against rat/mouse microsomal lipid peroxidation.
The incubation mixture contained heat-inactivated (90 °C for 90 s) liver microsomal fraction from untreated C57BL/6 mice (corresponding to 2.5 mg of hepatic protein per milliliter or 4 mM fatty acid residues), ascorbic acid (0.2 mM) in Tris–HCl/KCl buffer (50 mM/ 150 mM, pH 7.4), and the studied compounds dissolved in dimethyl sulfoxide (in different concentrations). The reaction was initiated by the addition of a freshly prepared FeSO4 solution (10 μM), and the mixture was incubated at 37 °C for 45 min. Aliquots were taken at various time intervals and lipid peroxidation was assessed by the spectrophotometric (535 against 600 nm) determination of the produced 2-thiobarbituric acid reactive material.

Data set [5] concerns carrageenan-induced mouse paw edema. To be noted: cited from earlier work.
For data set [6], the system named is experimentally induced hyperlipidemic mouse model. Description: Tyloxapol (Triton WR 1339)-induced hyperlipidemia. It counts as in vivo, mice. The settings on record: 84 μmol/kg i.p.; 24 h after tyloxapol. On the procedure:
Acute hyperlipidemia was achieved, i.p., by the administration of tyloxapol (Triton WR 1339). The antihyperlipidemic effect of the tested compounds was evaluated as the decrease in total cholesterol (TC) and triglyceride (TG) levels in plasma 24 h after tyloxapol administration. The results are shown in Figure 4A,B. Compounds 9 and 10 reduced TC levels in plasma by 73% and 50%, respectively, and TG levels by 76% and 41%, respectively.
An aqueous solution of Triton WR 1339 was given, i.p., to mice (400 mg/kg of body weight) and one hour later the test compounds (84 μmol/kg of body weight), dissolved in saline or saline only were administered, i.p. After 24 h, blood was taken from the aorta/heart and used for the determination of plasma total cholesterol (TC) and triglyceride (TG) levels, using commercially available kits. Levels of plasma lipids were determined in duplicate while the values presented were the mean from eight animals (per compound).

In data set [7] the test system is rat/mouse microsomal lipid peroxidation. Set-up: method as in doi:10.1002/(SICI)1098-2299(199905)47:1<9::AID-DDR2>3.0.CO. The settings on record: after 45 min of incubation; read-out: IC50 against microsomal lipid peroxidation; cited from earlier work.
Setting [8] is: after 5 min of incubation, sodium linoleate 100 μM, pH 9.0, read-out: IC50 Value on LOX-3.

`CC(C)(C)c1cc(C(=O)O)cc(C(C)(C)C)c1O` [BHB, 3,5-di-tert-butyl-4-hydroxybenzoic acid, reference compound]: the IC50 (commonly the midpoint of a concentration-inhibition curve) in data set [1] turned out to be 31 µM; in data set [4], 257 µM. In addition, the “LOX-3 inhibitory activity (in words)” value in data set [2] was “little or no inhibitory activity”. In data set [3], the inhibition in vivo at 300 µmol/kg was 53%.

As for `CC(C)(C)c1cc(CO)cc(C(C)(C)C)c1O` [BHBA, 3,5-di-tert-butyl-4-hydroxybenzyl alcohol, reference compound], the 50% inhibitory concentration (IC50) in data set [1] was found to be 160 µM; in data set [4], 10 µM. The “LOX-3 inhibitory activity (in words)” value in data set [2] was “little or no inhibitory activity”. Further, the inhibition in vivo at 300 µmol/kg in data set [3] was 71%.

With `COc1ccc2cc(C(C)C(=O)OCc3cc(C(C)(C)C)c(O)c(C(C)(C)C)c3)ccc2c1` (stereo not shown) [Compound 3, 3,5-di-tert-butyl-4-hydroxybenzyl 2-(6-methoxynaphthalen-2-yl)propanoate], the melting point (in general, the temperature, or range, at which the solid turns liquid) lay within 85 to 86 °C. Besides, in data set [2] (setting [8]), the 50% inhibitory concentration (IC50) worked out at 41 µM. Also, the “% Edema Reduction” value in data set [5] (0.15 mmol/kg i.p.) was 78**^a [11] %.

With `Cc1cccc(Nc2ccccc2C(=O)OCc2cc(C(C)(C)C)c(O)c(C(C)(C)C)c2)c1C` [Compound 9, 3,5-di-tert-butyl-4-hydroxybenzyl 2-((2,3-dimethylphenyl)amino)benzoate], in data set [6], the “reduction of total cholesterol (TC) levels in plasma” value worked out at 73% and the “reduction of triglyceride (TG) levels in plasma” value came out at 76%. In addition, in data set [2] (setting [8]), the concentration for half-maximal inhibition (IC50) turned out to be 108 µM. The inhibition in vivo at 300 µmol/kg in data set [3] came out at 63%. Also, the “improvement in edema reduction” value in data set [3] (compared to parent mefenamic acid (i)) is listed as 1.5–2 fold. For the same molecule, the concentration for half-maximal inhibition (IC50) in data set [4] was found to be 5 µM.

As for `Cc1c(Cl)cccc1Nc1ccccc1COC(=O)C1(C)CCc2c(C)c(O)c(C)c(C)c2O1` (stereo not shown) [Compound 16, 2-((3-chloro-2-methylphenyl)amino)benzyl 6-hydroxy-2,5,7,8-tetramethylchromane-2-carboxylate], the melting point was 150.4 to 151.3 °C. In data set [1], this molecule showed an IC50 of 47 µM. In data set [6], the “reduction of total cholesterol (TC) levels in plasma” value came to 55% and the “reduction of triglyceride (TG) levels in plasma” value stood at 78%. The IC50 in data set [2] (setting [8]) was 54 µM. Further, the inhibition in vivo at 300 µmol/kg in data set [3] was 54%.

Turning to `Cc1c(C)c2c(c(C)c1O)CCC(C)(C(=O)O)O2` (stereo not shown) [Trolox, 6-hydroxy-2,5,7,8-tetramethylchromane-2-carboxylic acid, reference compound], the half-maximal inhibitory concentration (IC50) is 33 µM in data set [1] and 25 µM in data set [4]. In addition, in data set [2], the “LOX-3 inhibitory activity (in words)” value is listed as “little or no inhibitory activity”. Further, the inhibition in vivo at 300 µmol/kg in data set [3] was determined as 46%.

Consider `CC(C)Cc1ccc(C(C)C(=O)O)cc1` (stereo not shown) [a, Ibuprofen], for which the “% Edema Reduction” value in data set [5] (0.30 mmol/kg i.p.) is 57*** [5] %.

In data set [2], `COc1ccc2cc([C@H](C)C(=O)O)ccc2c1` [c, Naproxen, reference compound] displayed an IC50 of 25 µM. Further, in data set [5] (0.30 mmol/kg i.p.), the “% Edema Reduction” value is 51** [11] %.

Turning to `Cc1c(Cl)cccc1Nc1ccccc1C(=O)O` [e, Tolfenamic acid], the 50% inhibitory concentration (IC50) in data set [7] is 250 µM. The “% Edema Reduction” value in data set [5] (0.30 mmol/kg i.p.) is 60*** [5] %.

In the case of `O=C(O)c1ccccc1Nc1cccc(C(F)(F)F)c1` [g, Flufenamic acid], the “% Edema Reduction” value in data set [5] (0.15 mmol/kg i.p.) is 19**^a [17] %.

On to `Cc1cccc(Nc2ccccc2C(=O)O)c1C` [i, Mefenamic acid, reference compound], for which the IC50 in data set [7] is 130 µM. The inhibition in vivo at 300 µmol/kg in data set [3] amounted to 35%.

Regarding `O=C(O)Cc1ccccc1Nc1c(Cl)cccc1Cl` [k, Diclofenac], the “% Edema Reduction” value in data set [5] (0.30 mmol/kg i.p.) is 61*** [5] %.

As to `COc1ccc2c(c1)c(CC(=O)O)c(C)n2C(=O)c1ccc(Cl)cc1` [m, Indomethacin], the “% Edema Reduction” value in data set [5] (0.30 mmol/kg i.p.) was 55*** [5] %.
